Our source for the EC50 values is patent US20230382940A1, “ANTIVIRAL COMPOUNDS AND METHODS OF MAKING AND USING THE SAME” (Gilead Sciences, Inc., priority 2022, published 2023).

Holding throughout (type): cell-based
For assay [1], the system named is Respiratory syncytial virus recombinant with luciferase (RSV-Luc5). As to the kind of experiment: HEp-2 RSV-Luc5 384-well assay (EC50 RSVFLUC Hep2-384 v2), Example V. Particulars: human respiratory syncytial virus, HEp-2, 72 h, read-out: EC50 RSV FLuc Hep-2 384 V2 (per Ex. V). An excerpt: Example V: HEp-2 RSV-Luc5 384-Well Assay (EC50 RSVFLUC Hep2-384 v2)
HEp-2 cell line was purchased from ATCC (Manassas, VA Cat #CCL-23) and maintained in Dulbecco's […] (DMEM) (Corning, New York, NY, Cat #15-018CM) supplemented with 10% fetal bovine serum (FBS) (Hyclone, Logan, UT, Cat #SH30071-03) and 1× Penicillin-Streptomycin-L-Glutamine (Corning, New York, NY, Cat #30-009-C1). Cells were passaged 2 times per week to maintain sub-confluent densities and were used for experiments at passage 5-20. Respiratory syncytial virus recombinant with luciferase (RSV-Luc5) (≥1×107 TCID50/ml) was purchased from Microbiologics (Saint Cloud, MN). Viral replication was determined in HEp-2 cells in the following manner.
Compounds are prepared in 100% DMSO in 384-well polypropylene plates (Greiner, Monroe, NC, Cat #784201) with 8 compounds per plate in grouped replicates of 4 at 10 serially diluted concentrations (1:3). The serially diluted compounds were transferred to low dead volume Echo plates (Labcyte, Sunnyvale, CA, Cat #LP-0200).
The test compounds were spotted to 384-well assay plates (Greiner, Monroe, NC, Cat #781091) at 200 nL per well. HEp-2 cells were harvested and suspended in DMEM (supplemented with 10% FBS and 1× Penicillin-Streptomycin-L-Glutamine) and seeded to the pre-spotted assay plates at 4,000 cells per well in 30 μL. RSV-Luc5 viruses were diluted in DMEM (supplemented with 10% FBS and 1× Penicillin-Streptomycin-L-(Glutamine) at 200,000 Infectious Units (IU) per mL and 10 μL per well was added to the assay plates containing cells and compounds, for an MOI=0.5. The assay plates were incubated for 3 days at 37° C. and 5% CO2. At the end of incubation, One-Glo reagent (Promega, Madison, WI, Cat #E6120) was prepared. The assay plates and One-Glo reagent were equilibrated to room temperature for at least 15 minutes. 40 μL per well of One-Glo reagent was added and the plates were incubated at room temp for 15 minutes before reading the luminescence signal on an EnVision multimode plate reader (Perkin Elmer, Waltham, MA). Remdesivir was used as positive control and DMSO was used as negative control. Values were normalized to the positive and negative controls (as 0% and 100% replication, respectively) and data was fitted using non-linear regression analysis by Gilead's dose response tool. The EC50 value for each compound was then determined as the concentration reducing the viral replication by 50%.

Assay [2] concerns Human Rhinovirus 14 (HRV14). As to the kind of experiment: H1-HeLa HRV-CTG 384-well assay, HRV14, Example X. Particulars: Rhinovirus B, 96 h; H1-HeLa cells, HRV14 MOI 1.0, 4 days, Celltiter-Glo; read-out: EC50 H1-HeLa_HRV 14_HRV-CTG 384-well Assay (per Ex. X). The source says: (§1) Example X: H1-HeLa HRV-CTG 384-Well Assay
(§2) H1-Hela cell line (ATCC, Manassas, VA, Cat #CRL-1958) was maintained in Dulbecco's […] (DMEM) (Corning, New York, NY, Cat #15-018CM) supplemented with 10% fetal bovine serum (FBS) (Hyclone, Logan, UT, Cat #SH30071-03), and 1× Penicillin-Streptomycin-L-Glutamine (Corning, New York, NY, Cat #30-009-CI). Cells were passaged 2 times per week to maintain sub-confluent densities and were used for experiments at passage 5-30. The Human Rhinovirus 1B (HRV1B) (ATCC, Manassas, VA, Cat #VR-1645), Human Rhinovirus 14 (HRV14) (ATCC, Manassas, VA, Cat #VR-284), and Human Rhinovirus 16 (HRV16) (ATCC, Manassas, VA, Cat #BR-283) was obtained through ATCC. Viral infection was monitored by determining viability of H1-HeLa cells as described below.
(§3) Test molecules are prepared in 100% DMSO in 384-well polypropylene plates (Greiner, Monroe, NC, Cat #784201) with 8 compounds per plate in grouped replicates of 4 at 10 serially diluted concentrations (1:3). The serially diluted compounds were transferred to low dead volume Echo plates (Labcyte, Sunnyvale, CA, Cat #LP-0200).
(§4) The test compounds were spotted to 384-well assay plates (Greiner, Monroe, NC, Cat #781091) at 200 nL per well using an Echo acoustic dispenser (Labcyte, Sunnyvale, CA). H1-HeLa cells were harvested and suspended in DMEM (supplemented with 2% FBS and 1× Penicillin-Streptomycin-L-Glutamine) and seeded to the pre-spotted assay plates at 5,000 cells per well in 30 μL. HRV1B, HRV14, and HRV16 was diluted in DMEM (supplemented with 2% FBS and 1× Penicillin-Streptomycin-L-Glutamine) at 97.1 million Infectious Units (IU) per mL, 151 million IU per mL and 221 million IU per mL respectively. 10 μL of virus per well was added to the assay plates containing cells and compounds, for an MOI of 0.5, 1.0, and 0.25 respectively. The assay plates were incubated for 4 days at 37° C. and 5% CO2. At the end of incubation, Celltiter-Glo (Promega, Madison, WI, Cat #G7573) was prepared. The assay plates and Celltiter-Glo reagent were equilibrated to room temperature for at least 15 minutes. 40 μL per well of Celltiter-Glo reagent was added and the plates were incubated at room temperature for 15 minutes before reading the luminescence signal on an EnVision multimode plate reader (Perkin Elmer, Waltham, MA). Rupintrivir was used as positive control and DMSO was used as negative control. Values were normalized to the positive and negative controls (as 0% and 100% replication, respectively) and data was fitted using non-linear regression analysis by Gilead's dose response tool. The EC50 value for each compound was defined as the concentration reducing viral replication by 50%.
Background: Cellular ATP, detected with luciferase, serves as a proxy for viable cell number.

The test system of assay [3] is Human Rhinovirus 16 (HRV16). As to the kind of experiment: H1-HeLa HRV-CTG 384-well assay, HRV16, Example X. To be noted: Rhinovirus A, 96 h; H1-HeLa cells, HRV16 MOI 0.25, 4 days, Celltiter-Glo; read-out: EC50 H1-HeLa_HRV 16_HRV-CTG 384-well Assay (per Ex. X).
Text: as §1, §2, §3, §4

Molecules are shown by their SMILES.

In general, EC50 refers to the concentration that produces a half-maximal response. Turning to `CC(C)COC(=O)OC[C@@]1(C#N)O[C@@H](c2ccc3c(N)ncnn23)[C@H](O)[C@@H]1O` [Compound 8, ((2R,3S,4R,5S)-5-(4-aminopyrrolo[2,1-f][1,2,4]triazin-7-yl)-2-cyano-3,4-dihydroxytetrahydrofuran-2-yl)methyl isobutyl carbonate], the EC50 in assay [1] was determined as 11.5 µM; in assay [2], 7.6 µM; in assay [3] it was 9.82 µM.

Consider `N#C[C@]1(COC(=O)OC2CCCC2)O[C@@H](c2ccc3c(N)ncnn23)[C@H](O)[C@@H]1O` [Compound 1, ((2R,3S,4R,5S)-5-(4-aminopyrrolo[2,1-f][1,2,4]triazin-7-yl)-2-cyano-3,4-dihydroxytetrahydrofuran-2-yl)methyl cyclopentyl carbonate], for which the values for the EC50 in assay [1], in assay [2] and in assay [3] were 21.2 µM, 19.1 µM and 31.2 µM, respectively.

Turning to `N#C[C@]1(COC(=O)O[C@H]2CCOC2)O[C@@H](c2ccc3c(N)ncnn23)[C@H](O)[C@@H]1O` [Compound 33, ((2R,3S,4R,5S)-5-(4-aminopyrrolo[2,1-f][1,2,4]triazin-7-yl)-2-cyano-3,4-dihydroxytetrahydrofuran-2-yl)methyl ((S)-tetrahydrofuran-3-yl) carbonate], the EC50 amounted to 25.1 µM in assay [1], 15.6 µM in assay [2] and 18.5 µM in assay [3].

For `N#C[C@]1(COC(=O)OCC2CCCC2)O[C@@H](c2ccc3c(N)ncnn23)[C@H](O)[C@@H]1O` [Compound 30, ((2R,3S,4R,5S)-5-(4-aminopyrrolo[2,1-f][1,2,4]triazin-7-yl)-2-cyano-3,4-dihydroxytetrahydrofuran-2-yl)methyl (cyclopentylmethyl) carbonate], the values for the EC50 in assay [1], in assay [2] and in assay [3] were 23 µM, 5.58 µM and 8.88 µM, respectively.

For `CCC(CC)COC(=O)OC[C@@]1(C#N)O[C@@H](c2ccc3c(N)ncnn23)[C@H](O)[C@@H]1O` [Compound 31, ((2R,3S,4R,5S)-5-(4-aminopyrrolo[2,1-f][1,2,4]triazin-7-yl)-2-cyano-3,4-dihydroxytetrahydrofuran-2-yl)methyl (2-ethylbutyl) carbonate], the EC50 in assay [1] worked out at 20.3 µM; in assay [2] it was 7.62 µM; in assay [3], 9.07 µM.

For the molecule `CC(C)COC(=O)OC[C@@]1(C#N)O[C@@H](c2ccc3c(N)ncnn23)[C@@H]2OC(=O)O[C@@H]21` [Compound 15, ((3aS,4R,6S,6aS)-6-(4-aminopyrrolo[2,1-f][1,2,4]triazin-7-yl)-4-cyano-2-oxotetrahydrofuro[3,4-d][1,3]dioxol-4-yl)methyl isobutyl carbonate], the EC50 in assay [1] was 14.4 µM; in assay [2] it was 7.55 µM; in assay [3] it was 9.15 µM.

For `N#C[C@]1(COC(=O)OC2CCC2)O[C@@H](c2ccc3c(N)ncnn23)[C@H](O)[C@@H]1O` [Compound 17, ((2R,3S,4R,5S)-5-(4-aminopyrrolo[2,1-f][1,2,4]triazin-7-yl)-2-cyano-3,4-dihydroxytetrahydrofuran-2-yl)methyl cyclobutyl carbonate], the results for the EC50 in assay [1], in assay [2] and in assay [3] were 24.9 µM, 18.4 µM and 15.1 µM, respectively.

For the molecule `CC(C)COC(=O)Nc1ncnn2c([C@@H]3O[C@](C#N)(CO)[C@@H](O)[C@H]3O)ccc12` [Compound 16, Isobutyl (7-((2S,3R,4S,5R)-5-cyano-3,4-dihydroxy-5-(hydroxymethyl)tetrahydrofuran-2-yl)pyrrolo[2,1-f][1,2,4]triazin-4-yl)carbamate], the EC50 in assay [1], in assay [2] and in assay [3] was 50 µM throughout.

As to `N#C[C@]1(COC(=O)OCC2CC2)O[C@@H](c2ccc3c(N)ncnn23)[C@H](O)[C@@H]1O` [Compound 32, ((2R,3S,4R,5S)-5-(4-aminopyrrolo[2,1-f][1,2,4]triazin-7-yl)-2-cyano-3,4-dihydroxytetrahydrofuran-2-yl)methyl (cyclopropylmethyl) carbonate], the EC50 in assay [1] is 20.6 µM; in assay [2], 11.5 µM; in assay [3], 12.1 µM.

As for `CCCOCCOC(=O)OC[C@@]1(C#N)O[C@@H](c2ccc3c(N)ncnn23)[C@H](O)[C@@H]1O` [Compound 34, ((2R,3S,4R,5S)-5-(4-aminopyrrolo[2,1-f][1,2,4]triazin-7-yl)-2-cyano-3,4-dihydroxytetrahydrofuran-2-yl)methyl (2-propoxyethyl) carbonate], the results for the EC50 in assay [1], in assay [2] and in assay [3] were 17.6 µM, 14 µM and 12.1 µM, respectively.

`CCCCCOC(=O)OC[C@@]1(C#N)O[C@@H](c2ccc3c(N)ncnn23)[C@H](O)[C@@H]1O` [Compound 20, ((2R,3S,4R,5S)-5-(4-aminopyrrolo[2,1-f][1,2,4]triazin-7-yl)-2-cyano-3,4-dihydroxytetrahydrofuran-2-yl)methyl pentyl carbonate]: the EC50 in assay [1] stood at 13.7 µM; in assay [2], 12.3 µM; in assay [3], 9.58 µM.

In the case of `CCC(CC)OC(=O)OC[C@@]1(C#N)O[C@@H](c2ccc3c(N)ncnn23)[C@H](O)[C@@H]1O` [Compound 14, ((2R,3S,4R,5S)-5-(4-aminopyrrolo[2,1-f][1,2,4]triazin-7-yl)-2-cyano-3,4-dihydroxytetrahydrofuran-2-yl)methyl pentan-3-yl carbonate], the EC50 in assay [1] came to 31.6 µM; in assay [2], 44.5 µM; in assay [3], 50 µM.

`N#C[C@]1(COC(=O)OC2CCOCC2)O[C@@H](c2ccc3c(N)ncnn23)[C@H](O)[C@@H]1O` [Compound 12, ((2R,3S,4R,5S)-5-(4-aminopyrrolo[2,1-f][1,2,4]triazin-7-yl)-2-cyano-3,4-dihydroxytetrahydrofuran-2-yl)methyl (tetrahydro-2H-pyran-4-yl) carbonate]: the EC50 in assay [1] was > 50 µM; in assay [2], 27.2 µM; in assay [3], 30.3 µM.
